Measurements: ChEMBL document CHEMBL1759880, “A facile, one-pot synthesis, characterization and antimicrobial activity of o-hydroxy anilide derivatives and 1-substituted-1,3-dicyclohexylurea analogs of long chain carboxylic acids” (2011)
Values after ≈ are worked out from the molar mass of the structure shown.

Assays:
[1] = tested on: Escherichia coli; test: Antibacterial activity against Escherichia coli ATCC 25922 after 24 hrs by disc diffusion method; assay type: functional
[2] = tested on: Staphylococcus aureus; test: Antibacterial activity against Staphylococcus aureus ATCC 25923 after 24 hrs by broth dilution technique; assay type: functional; settings: ATCC-25923, 24 h
[3] = tested on: Aspergillus fumigatus; test: Antifungal activity against Aspergillus fumigatus after 48 hrs by broth dilution technique; assay type: functional
[4] = tested on: Pseudomonas aeruginosa; test: Antibacterial activity against Pseudomonas aeruginosa ATCC 27853 after 24 hrs by disc diffusion method
[5] = tested on: Talaromyces marneffei; test: Antifungal activity against Penicillium marneffei after 48 hrs by broth dilution technique; assay type: functional
[6] = tested on: Streptococcus pyogenes; test: Antibacterial activity against Streptococcus pyogenes clinical isolate after 24 hrs by disc diffusion method; assay type: functional
[7] = tested on: Escherichia coli; test: Antibacterial activity against Escherichia coli ATCC 25922 after 24 hrs by broth dilution technique; assay type: functional; settings: ATCC-25922, 24 h
[8] = tested on: Candida albicans; test: Antifungal activity against Candida albicans after 3 to 4 days by disc diffusion method; assay type: functional
[9] = tested on: Candida albicans; test: Antifungal activity against Candida albicans after 48 hrs by broth dilution technique; assay type: functional
[10] = tested on: Talaromyces marneffei; test: Antifungal activity against Penicillium marneffei after 3 to 4 days by disc diffusion method; assay type: functional
[11] = tested on: Staphylococcus aureus; test: Antibacterial activity against Staphylococcus aureus ATCC 25923 after 24 hrs by disc diffusion method; assay type: functional
[12] = tested on: Streptococcus pyogenes; test: Antibacterial activity against Streptococcus pyogenes clinical isolate after 24 hrs by broth dilution technique; assay type: functional
[13] = tested on: Klebsiella pneumoniae; test: Antibacterial activity against Klebsiella pneumoniae clinical isolate after 24 hrs by broth dilution technique; assay type: functional
[14] = tested on: Aspergillus fumigatus; test: Antifungal activity against Aspergillus fumigatus after 3 to 4 days by disc diffusion method; assay type: functional
[15] = tested on: Pseudomonas aeruginosa; test: Antibacterial activity against Pseudomonas aeruginosa ATCC 27853 after 24 hrs by broth dilution technique; settings: ATCC-27853, 24 h
[16] = tested on: Trichophyton mentagrophytes; test: Antifungal activity against Trichophyton mentagrophytes after 48 hrs by broth dilution technique; assay type: functional
[17] = tested on: Trichophyton mentagrophytes; test: Antifungal activity against Trichophyton mentagrophytes after 3 to 4 days by disc diffusion method; assay type: functional
[18] = tested on: Klebsiella pneumoniae; test: Antibacterial activity against Klebsiella pneumoniae clinical isolate after 24 hrs by disc diffusion method; assay type: functional

MIC [2]: 50 µg/mL (≈ 144 µM)
MIC [3]: 50 µg/mL (≈ 144 µM)
MIC [5]: 50 µg/mL (≈ 144 µM)
MIC [7]: 100 µg/mL (≈ 288 µM)
MIC [9]: 50 µg/mL (≈ 144 µM)
MIC [12]: 50 µg/mL (≈ 144 µM)
MIC [13]: 50 µg/mL (≈ 144 µM)
MIC [15]: 100 µg/mL (≈ 288 µM)
MIC [16]: 25 µg/mL (≈ 71.9 µM)
SMILES: CCCCCCCCCCCCCCCC(=O)Nc1ccccc1O
diameter of the inhibition zone (DIZ) [1]: 11.8 mm
MBC [2]: 100 µg/mL (≈ 288 µM)
MFC [3]: 100 µg/mL (≈ 288 µM)
diameter of the inhibition zone (DIZ) [4]: 11.5 mm
MFC [5]: 100 µg/mL (≈ 288 µM)
diameter of the inhibition zone (DIZ) [6]: 10.6 mm
MBC [7]: 100 µg/mL (≈ 288 µM)
diameter of the inhibition zone (DIZ) [8]: 13.7 mm
MFC [9]: 100 µg/mL (≈ 288 µM)
diameter of the inhibition zone (DIZ) [10]: 9.3 mm
diameter of the inhibition zone (DIZ) [11]: 9.8 mm
MBC [12]: 100 µg/mL (≈ 288 µM)
MBC [13]: 100 µg/mL (≈ 288 µM)
diameter of the inhibition zone (DIZ) [14]: 11.6 mm
MBC [15]: 100 µg/mL (≈ 288 µM)
MFC [16]: 100 µg/mL (≈ 288 µM)
diameter of the inhibition zone (DIZ) [17]: 9.8 mm
diameter of the inhibition zone (DIZ) [18]: 10.5 mm
